Source: ChEMBL document CHEMBL3885881, “DrugMatrix”

Species on record: Rattus norvegicus
Assay: DrugMatrix - Regimen: Daily Repeat
Type: toxicity, organism-based, Sprague-Dawley
Parameters: regimen Daily Repeat, gender Male, age 6-8 weeks
Conditions: in vivo, po, 40 mg/kg, route oral GAVAGE, dose level Low, […]; for ABSOLUTE BASOPHIL / ABSOLUTE EOSINOPHIL / ABSOLUTE LYMPHOCYTE / ABSOLUTE MONOCYTE / ABSOLUTE SEGMENTED NEUTROPHIL / BASOPHIL / EOSINOPHIL / ERYTHROCYTE COUNT / HEMATOCRIT / HEMOGLOBIN / LEUKOCYTE COUNT / LYMPHOCYTE / MEAN CORPUSCULAR HEMOGLOBIN / MEAN CORPUSCULAR HEMOGLOBIN CONCENTRATION / MEAN CORPUSCULAR VOLUME / MONOCYTE / NEUTROPHIL / NUCLEATED RED BLOOD CELLS / PLATELET COUNT: tissue Blood; for ALANINE AMINOTRANSFERASE / ALBUMIN / ALKALINE PHOSPHATASE / ASPARTATE AMINOTRANSFERASE / BLOOD UREA NITROGEN / CARBON DIOXIDE / CHLORIDE / CHOLESTEROL / CREATINE PHOSPHOKINASE / CREATININE / GLUCOSE / LACTATE DEHYDROGENASE / LIPASE / PHOSPHORUS / POTASSIUM / SODIUM / TOTAL BILIRUBIN / TOTAL PROTEIN / URIC ACID: tissue Plasma

CC(c1cc2ccccc2s1)N(O)C(N)=O (stereo unspecified) [ZILEUTON]
ABSOLUTE BASOPHIL (72 h, time 3 day): 0 CELLS/uL
ABSOLUTE EOSINOPHIL (72 h, time 3 day): 103.33 CELLS/uL
ABSOLUTE LYMPHOCYTE (72 h, time 3 day): 13682 CELLS/uL
ABSOLUTE MONOCYTE (72 h, time 3 day): 0 CELLS/uL
ABSOLUTE SEGMENTED NEUTROPHIL (72 h, time 3 day): 1348 CELLS/uL
BASOPHIL (72 h, time 3 day): 0%
EOSINOPHIL (72 h, time 3 day): 0.67%
ERYTHROCYTE COUNT (72 h, time 3 day): 5.58 x10E6/uL
HEMATOCRIT (72 h, time 3 day): 34.97%
HEMOGLOBIN (72 h, time 3 day): 13.77 G/DL
LEUKOCYTE COUNT (72 h, time 3 day): 15.13 x10E3/uL
LYMPHOCYTE (72 h, time 3 day): 90.33%
MEAN CORPUSCULAR HEMOGLOBIN (72 h, time 3 day): 24.67 pg
MEAN CORPUSCULAR HEMOGLOBIN CONCENTRATION (72 h, time 3 day): 39.37 G/DL
MEAN CORPUSCULAR VOLUME (72 h, time 3 day): 62.67 fL
MONOCYTE (72 h, time 3 day): 0%
NEUTROPHIL (72 h, time 3 day): 9%
NUCLEATED RED BLOOD CELLS (72 h, time 3 day): 0 /100WBC
PLATELET COUNT (72 h, time 3 day): 1217.67 x10E3/uL
ALANINE AMINOTRANSFERASE (72 h, time 3 day): 75.33 u/L
ALBUMIN (72 h, time 3 day): 3.93 G/DL
ALKALINE PHOSPHATASE (72 h, time 3 day): 442 u/L
ASPARTATE AMINOTRANSFERASE (72 h, time 3 day): 87.67 u/L
BLOOD UREA NITROGEN (72 h, time 3 day): 14 mg/dL
CARBON DIOXIDE (72 h, time 3 day): 32.33 mmol/L
CHLORIDE (72 h, time 3 day): 100 MEQ/L
CHOLESTEROL (72 h, time 3 day): 66.67 mg/dL
CREATINE PHOSPHOKINASE (72 h, time 3 day): 201.33 u/L
CREATININE (72 h, time 3 day): 0.14 mg/dL
GLUCOSE (72 h, time 3 day): 160 mg/dL
LACTATE DEHYDROGENASE (72 h, time 3 day): 148.33 u/L
LIPASE (72 h, time 3 day): 10.67 u/L
PHOSPHORUS (72 h, time 3 day): 10.8 mg/dL
POTASSIUM (72 h, time 3 day): 6.7 MEQ/L
SODIUM (72 h, time 3 day): 140.3 MEQ/L
TOTAL BILIRUBIN (72 h, time 3 day): 0.17 mg/dL
TOTAL PROTEIN (72 h, time 3 day): 5.37 G/DL
URIC ACID (72 h, time 3 day): 1.53 mg/dL
ABSOLUTE BASOPHIL (120 h, time 5 day): 0 CELLS/uL
ABSOLUTE EOSINOPHIL (120 h, time 5 day): 0 CELLS/uL
ABSOLUTE LYMPHOCYTE (120 h, time 5 day): 9935.67 CELLS/uL
ABSOLUTE MONOCYTE (120 h, time 5 day): 247 CELLS/uL
ABSOLUTE SEGMENTED NEUTROPHIL (120 h, time 5 day): 1084 CELLS/uL
BASOPHIL (120 h, time 5 day): 0%
EOSINOPHIL (120 h, time 5 day): 0%
ERYTHROCYTE COUNT (120 h, time 5 day): 5.6 x10E6/uL
HEMATOCRIT (120 h, time 5 day): 34.1%
HEMOGLOBIN (120 h, time 5 day): 13.83 G/DL
LEUKOCYTE COUNT (120 h, time 5 day): 11.27 x10E3/uL
LYMPHOCYTE (120 h, time 5 day): 89%
MEAN CORPUSCULAR HEMOGLOBIN (120 h, time 5 day): 24.77 pg
MEAN CORPUSCULAR HEMOGLOBIN CONCENTRATION (120 h, time 5 day): 40.57 G/DL
MEAN CORPUSCULAR VOLUME (120 h, time 5 day): 60.97 fL
MONOCYTE (120 h, time 5 day): 2%
NEUTROPHIL (120 h, time 5 day): 9%
NUCLEATED RED BLOOD CELLS (120 h, time 5 day): 0 /100WBC
PLATELET COUNT (120 h, time 5 day): 1094 x10E3/uL
ALANINE AMINOTRANSFERASE (120 h, time 5 day): 62 u/L
ALBUMIN (120 h, time 5 day): 4.23 G/DL
ALKALINE PHOSPHATASE (120 h, time 5 day): 479.33 u/L
ASPARTATE AMINOTRANSFERASE (120 h, time 5 day): 79.33 u/L
BLOOD UREA NITROGEN (120 h, time 5 day): 13.67 mg/dL
CARBON DIOXIDE (120 h, time 5 day): 32 mmol/L
CHLORIDE (120 h, time 5 day): 100.67 MEQ/L
CHOLESTEROL (120 h, time 5 day): 62 mg/dL
CREATINE PHOSPHOKINASE (120 h, time 5 day): 165.33 u/L
CREATININE (120 h, time 5 day): 0.2 mg/dL
GLUCOSE (120 h, time 5 day): 145 mg/dL
LACTATE DEHYDROGENASE (120 h, time 5 day): 111.67 u/L
LIPASE (120 h, time 5 day): 11 u/L
PHOSPHORUS (120 h, time 5 day): 10.6 mg/dL
POTASSIUM (120 h, time 5 day): 6.47 MEQ/L
SODIUM (120 h, time 5 day): 141.17 MEQ/L
TOTAL BILIRUBIN (120 h, time 5 day): 0.17 mg/dL
TOTAL PROTEIN (120 h, time 5 day): 5.67 G/DL
URIC ACID (120 h, time 5 day): 1.47 mg/dL
